Earlier results as cited in PubChem BioAssay AID1259409 (Chemical Carcinogenesis Research Information System (CCRIS), 2018).
Several values for one entry are separate records, joined by “and”; a condition that tells them apart may be missing. Equal values may be shown once.

Test system: rodent chemically induced tumor inhibition, incidence and multiplicity
Assay: CCRIS tumor inhibitor studies

For `O=C(O)/C=C/c1ccccc1O`, the “tumour outcome (control, treated, inhibition, significance)” value (Carcinogen: BENZO[A]PYRENE, 50-32-8, Dose [Inhibitor]: 0.03 MMOL/G OF DIET DAILY STARTING 7 D BEFORE AND CONTINUING THROUGH 3 D AFTER CARCINOGEN TREATMENT FOLLOWED BY OBSERVAT, Route [Inhibitor]: ORAL, Species: MOUSE, Strain/Sex: ICR/FEMALE, Target Tissue: Type of Lesion: FORESTOMACH: NEOPLASM, Dose [Carcinogen]: 1 MG IN 0.2 ML CORN OIL 2/WK FOR 4 WK, Promoter: NONE USED) is listed as 100%, 100%, 0%, not significant and the “tumour outcome (control, treated, inhibition, significance)” value (Carcinogen: BENZO[A]PYRENE, 50-32-8, Dose [Inhibitor]: 0.06 MMOL/G OF DIET DAILY STARTING 7 D BEFORE AND CONTINUING THROUGH 3 D AFTER CARCINOGEN TREATMENT FOLLOWED BY OBSERVAT, Route [Inhibitor]: ORAL, Species: MOUSE, Strain/Sex: ICR/FEMALE, Target Tissue: Type of Lesion: FORESTOMACH: NEOPLASM, Dose [Carcinogen]: 1 MG IN 0.2 ML CORN OIL 2/WK FOR 4 WK, Promoter: NONE USED) is listed as 100%, 84%, 16%, not significant and 97%, 89%, 8%, not significant and 100%, 82%, 18%, not significant.
For `CC(C(=O)O)c1cccc(C(=O)c2ccccc2)c1` (stereo not given), the “tumour outcome (control, treated, inhibition, significance)” value (Carcinogen: AZOXYMETHANE, 25843-45-2, Dose [Inhibitor]: 0, 100 PPM IN DIET BEGINNING 1 WK PRIOR TO CARCINOGEN TREATMENT FOR DURATION OF STUDY (STUDY DURATION: 54 WK), Route [Inhibitor]: ORAL, Species: RAT, Strain/Sex: F344/MALE, Target Tissue: Type of Lesion: COLON: ADENOCARCINOMA, Dose [Carcinogen]: 15 MG/KG/BW 1/WK FOR 2 WK, Promoter: NONE USED) is listed as 58%, 56%, 3%, not calculated, the “tumour outcome (control, treated, inhibition, significance)” value (Carcinogen: AZOXYMETHANE, 25843-45-2, Dose [Inhibitor]: 0, 100 PPM IN DIET BEGINNING 1 WK TO CARCINOGEN TREATMENT FOR DURATION OF STUDY (STUDY DURATION: 54 WK), Route [Inhibitor]: ORAL, Species: RAT, Strain/Sex: F344/MALE, Target Tissue: Type of Lesion: COLON: ADENOMA, Dose [Carcinogen]: 15 MG/KG/BW 1/WK FOR 2 WK, Promoter: NONE USED) is listed as 6%, 3%, 50%, not calculated and the “tumour outcome (control, treated, inhibition, significance)” value (Carcinogen: AZOXYMETHANE, 25843-45-2, Dose [Inhibitor]: 0, 200 PPM IN DIET BEGINNING 1 WK PRIOR TO CARCINOGEN TREATMENT FOR DURATION OF STUDY (STUDY DURATION: 54 WK), Route [Inhibitor]: ORAL, Species: RAT, Strain/Sex: F344/MALE, Target Tissue: Type of Lesion: COLON: ADENOCARCINOMA, Dose [Carcinogen]: 15 MG/KG/BW 1/WK FOR 2 WK, Promoter: NONE USED) is listed as 58%, 28%, 52%, p<0.01. The “tumour outcome (control, treated, inhibition, significance)” value (Carcinogen: AZOXYMETHANE, 25843-45-2, Dose [Inhibitor]: 0, 200 PPM IN DIET BEGINNING 1 WK PRIOR TO CARCINOGEN TREATMENT FOR DURATION OF STUDY (STUDY DURATION: 54 WK), Route [Inhibitor]: ORAL, Species: RAT, Strain/Sex: F344/MALE, Target Tissue: Type of Lesion: COLON: ADENOMA, Dose [Carcinogen]: 15 MG/KG/BW 1/WK FOR 2 WK, Promoter: NONE USED) was 6%, 6%, 0%, not significant, the “tumour outcome (control, treated, inhibition, significance)” value (Carcinogen: N-BUTYL-N-(4-HYDROXYBUTYL)NITROSAMINE, 3817-11-6, Dose [Inhibitor]: 0, 40 MG/KG DIET FOR 24 WK BEGINNING 1 WK PRIOR TO CARCINOGEN TREATMENT (STUDY DURATION: 24 WK), Route [Inhibitor]: ORAL, Species: MOUSE, Strain/Sex: BDF/MALE, Target Tissue: Type of Lesion: URINARY BLADDER: TRANSITIONAL CELL CARCINOMA, Dose [Carcinogen]: 7.5 MG 1/WK FOR 8 WK, Promoter: NONE USED) was 22/75 (29%), 5/73 (7%), 76%, p<0.01 and the “tumour outcome (control, treated, inhibition, significance)” value (Carcinogen: N-BUTYL-N-(4-HYDROXYBUTYL)NITROSAMINE, 3817-11-6, Dose [Inhibitor]: 0, 80 MG/KG DIET FOR 24 WK BEGINNING 1 WK PRIOR TO CARCINOGEN TREATMENT (STUDY DURATION: 24 WK), Route [Inhibitor]: ORAL, Species: MOUSE, Strain/Sex: BDF/MALE, Target Tissue: Type of Lesion: URINARY BLADDER: TRANSITIONAL CELL CARCINOMA, Dose [Carcinogen]: 7.5 MG 1/WK FOR 8 WK, Promoter: NONE USED) was 22/75 (29%), 4/72 (6%), 79%, p<0.01.
For `CCCCCCCCCCCCCCCCCCCCCCCCCCCCOC(=O)/C=C/c1ccc(O)c(OC)c1`, the “tumour outcome (control, treated, inhibition, significance)” value (Carcinogen: 7,12-DIMETHYLBENZ[A]ANTHRACENE, 57-97-6, Dose [Inhibitor]: 0, 2 UMOL IN ACETONE/DMSO (9:1) 2/WK FOR 20 WK BEGINNING 1 WK POST CARCINOGEN DOSE (STUDY DURATION: 20 WK), Route [Inhibitor]: DERMAL, Species: MOUSE, Strain/Sex: ICR/FEMALE, Target Tissue: Type of Lesion: SKIN: PAPILLOMA, Dose [Carcinogen]: 50 UG ONCE, Promoter: 12-O-TETRADECANOYLPHORBOL-13-ACETATE, 16561-29-8) is given as 100%, 20%, 80%, not calculated.
In the case of `C[C@]12CC[C@]3(C1)[C@H](CC2=O)C[C@@H](OC(=O)c1ccccc1)[C@H]1[C@](C)(C(=O)O)CCC[C@@]13C`, the “tumour outcome (control, treated, inhibition, significance)” value (Carcinogen: 7,12-DIMETHYLBENZ[A]ANTHRACENE, 57-97-6, Dose [Inhibitor]: 0, 162 NMOL 2/WK APPLIED SIMULTANEOUSLY WITH EACH PROMOTER DOSE FOR 18 WK (STUDY DURATION: 18 WK), Route [Inhibitor]: DERMAL, Species: MOUSE, Strain/Sex: ICR/FEMALE, Target Tissue: Type of Lesion: SKIN: TUMOR, Dose [Carcinogen]: 100 UG IN 100 µL ACETONE ONCE, Promoter: 12-O-TETRADECANOYLPHORBOL-13-ACETATE, 16561-29-8) is given as 90%, 50%, 44%, not significant.
In the case of `c1ccc2c(c1)c1cccc3ccc4cccc2c4c31`, the “tumour outcome (control, treated, inhibition, significance)” value (Carcinogen: BENZO[A]PYRENE, 50-32-8, Dose [Inhibitor]: 5 UG IN 0.1 ML ACETONE 3/WK ADMINISTERED SIMULTANEOUSLY WITH CARCINOGEN FOR DURATION OF STUDY (STUDY DURATION: 368 D), Route [Inhibitor]: DERMAL, Species: MOUSE, Strain/Sex: ICR/FEMALE, Target Tissue: Type of Lesion: SKIN: PAPILLOMA, Dose [Carcinogen]: 5 UG IN 0.1 ML ACETONE 3/WK FOR DURATION OF STUDY, Promoter: NONE USED) is given as 14/50 (28%), 24/50 (48%), -71%, not calculated, the “tumour outcome (control, treated, inhibition, significance)” value (Carcinogen: BENZO[A]PYRENE, 50-32-8, Dose [Inhibitor]: 5 UG IN 0.1 ML ACETONE 3/WK ADMINISTERED SIMULTANEOUSLY WITH CARCINOGEN FOR DURATION OF STUDY (STUDY DURATION: 368 D), Route [Inhibitor]: DERMAL, Species: MOUSE, Strain/Sex: ICR/FEMALE, Target Tissue: Type of Lesion: SKIN: SQUAMOUS CARCINOMA, Dose [Carcinogen]: 5 UG IN 0.1 ML ACETONE 3/WK FOR DURATION OF STUDY, Promoter: NONE USED) is given as 10/50 (20%), 9/50 (18%), 10%, not calculated and the “tumour outcome (control, treated, inhibition, significance)” value (Carcinogen: BENZO[A]PYRENE, 50-32-8, Dose [Inhibitor]: 15 UG IN 0.1 ML ACETONE 3/WK ADMINISTERED SIMULTANEOUSLY WITH CARCINOGEN FOR DURATION OF STUDY (STUDY DURATION: 368 D), Route [Inhibitor]: DERMAL, Species: MOUSE, Strain/Sex: ICR/FEMALE, Target Tissue: Type of Lesion: SKIN: PAPILLOMA, Dose [Carcinogen]: 5 UG IN 0.1 ML ACETONE 3/WK FOR DURATION OF STUDY, Promoter: NONE USED) is given as 14/50 (28%), 33/50 (66%), -136%, not calculated. For the same molecule, the “tumour outcome (control, treated, inhibition, significance)” value (Carcinogen: BENZO[A]PYRENE, 50-32-8, Dose [Inhibitor]: 15 UG IN 0.1 ML ACETONE 3/WK ADMINISTERED SIMULTANEOUSLY WITH CARCINOGEN FOR DURATION OF STUDY (STUDY DURATION: 368 D), Route [Inhibitor]: DERMAL, Species: MOUSE, Strain/Sex: ICR/FEMALE, Target Tissue: Type of Lesion: SKIN: SQUAMOUS CARCINOMA, Dose [Carcinogen]: 5 UG IN 0.1 ML ACETONE 3/WK FOR DURATION OF STUDY, Promoter: NONE USED) was 10/50 (20%), 27/50 (54%), -170%, not calculated.
In the case of `CC(C)CCC[C@@H](C)[C@H]1CC[C@H]2[C@@H]3CC=C4C[C@@H](OS(=O)(=O)O)CC[C@]4(C)[C@H]3CC[C@]12C`, the “tumour outcome (control, treated, inhibition, significance)” value (Carcinogen: 7,12-DIMETHYLBENZ[A]ANTHRACENE, 57-97-6, Dose [Inhibitor]: 0, 400 UG IN 0.2 ML METHANOL:ACETONE (1:4) APPLIED 10 MIN PRIOR TO EACH PROMOTER DOSE FOR 20 WK (STUDY DURATION: 20 WK), Route [Inhibitor]: DERMAL, Species: MOUSE, Strain/Sex: CD-1/FEMALE, Target Tissue: Type of Lesion: SKIN: TUMOR, Dose [Carcinogen]: 100 UG ONCE, Promoter: 12-O-TETRADECANOYLPHORBOL-13-ACETATE, 16561-29-8, MEZEREIN, 34807-41-5, Promoter: 12-O-TETRADECANOYLPHORBOL-13-ACETATE, 16561-29-8, MEZEREIN, 34807-41-5) is listed as 90%, 40%, 56%, not calculated.
